Test results from US11820766B2, “Monoacylglycerol lipase modulators” (Janssen Pharmaceutica NV, priority 2018, dated 2023).

Molecular target: T1, human MGL from HeLa cells (Homo sapiens, UniProt Q99685)
T1 construct: combining endogenously expressed MGL from HeLa cells with test compounds; endogenous in cells; host or cells: HeLa cells / cell homogenates
T1 sequence (Q99685 1-303): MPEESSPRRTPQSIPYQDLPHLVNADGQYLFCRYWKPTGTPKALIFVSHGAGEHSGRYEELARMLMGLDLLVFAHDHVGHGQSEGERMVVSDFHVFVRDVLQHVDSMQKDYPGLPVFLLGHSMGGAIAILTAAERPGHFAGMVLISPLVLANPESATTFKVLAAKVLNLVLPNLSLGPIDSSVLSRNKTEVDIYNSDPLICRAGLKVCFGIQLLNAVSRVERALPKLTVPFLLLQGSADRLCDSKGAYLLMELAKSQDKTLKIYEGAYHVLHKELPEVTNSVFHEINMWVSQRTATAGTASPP
Experiment: In vitro MGL activity assay: [glycerol-1,3-3H]-oleyl glycerol cleavage by MGL from HeLa cells
Assay type: biochemical
Conditions: 300 nM [Glycerol-1,3-3H]-oleyl glycerol, one hour
From the text: MGL is the predominant hydrolase in HeLa cells/cell homogenates.

Structure (SMILES)	IC50
C[C@H]1c2nn(C)c(-c3cc(F)c(F)c(F)c3)c2CCN1C(=O)c1cnc2c(c1)OCCN2 [Example 571, 3,4-Dihydro-2H-pyrido[3,2-b][1,4]oxazin-7-yl-[(7S)-2,7-dimethyl-3-(3,4,5-trifluorophenyl)-5,7-dihydro-4H-pyrazolo[3,4-c]pyridin-6-yl]methanone]	12.7 nM
Cc1ccc2cc(C(=O)N3CCc4c(nn(C)c4-c4cc(F)c(F)c(F)c4)[C@@H]3C)ccc2n1 [Example 548, [(7S)-2,7-Dimethyl-3-(3,4,5-trifluorophenyl)-5,7-dihydro-4H-pyrazolo[3,4-c]pyridin-6-yl]-(2-methyl-6-quinolyl)methanone]	16.2 nM
C[C@H]1c2nn(C)c(-c3cc(F)c(F)c(F)c3)c2CCN1C(=O)c1nccc2ncncc12 [Example 484, [(7S)-2,7-Dimethyl-3-(3,4,5-trifluorophenyl)-5,7-dihydro-4H-pyrazolo[3,4-c]pyridin-6-yl]-pyrido[4,3-d]pyrimidin-5-yl-methanone]	62.2 nM
C[C@H]1c2nn(C)c(-c3ccc(F)c(Cl)c3)c2CCN1C(=O)c1ccc2ncccc2c1 [Example 505, [(7S)-3-(3-Chloro-4-fluoro-phenyl)-2,7-dimethyl-5,7-dihydro-4H-pyrazolo[3,4-c]pyridin-6-yl]-(6-quinolyl)methanone]	7.38 nM
C[C@H]1c2nn(C)c(-c3cc(F)c(F)c(F)c3)c2CCN1C(=O)c1cc2ccccc2nn1 [Example 478, Cinnolin-3-yl-[(7S)-2,7-dimethyl-3-(3,4,5-trifluorophenyl)-5,7-dihydro-4H-pyrazolo[3,4-c]pyridin-6-yl]methanone]	112 nM
C[C@H]1c2nn(C)c(-c3cncc(OC(F)F)c3)c2CCN1C(=O)c1ccc2ncccc2c1 [Example 528, [(7S)-3-[5-(Difluoromethoxy)-3-pyridyl]-2,7-dimethyl-5,7-dihydro-4H-pyrazolo[3,4-c]pyridin-6-yl]-(6-quinolyl)methanone]	397 nM
C[C@H]1c2nn(C)c(-c3cc(F)c(F)c(F)c3)c2CCN1C(=O)c1cnn(C)c1C1CCC1 [Example 333, (5-Cyclobutyl-1-methyl-pyrazol-4-yl)-[(7S)-2,7-dimethyl-3-(3,4,5-trifluorophenyl)-5,7-dihydro-4H-pyrazolo[3,4-c]pyridin-6-yl]methanone]	25.4 nM
C[C@H]1c2nn(C)c(-c3ccc(C(F)(F)F)nc3)c2CCN1C(=O)c1ccc2ncccc2c1 [Example 522, [(7S)-2,7-Dimethyl-3-[6-(trifluoromethyl)-3-pyridyl]-5,7-dihydro-4H-pyrazolo[3,4-c]pyridin-6-yl]-(6-quinolyl)methanone]	267 nM
C[C@H]1c2nn(C)c(-c3cc(F)c(F)c(F)c3)c2CCN1C(=O)c1ccn2ccncc12 [Example 416, [(7S)-2,7-Dimethyl-3-(3,4,5-trifluorophenyl)-5,7-dihydro-4H-pyrazolo[3,4-c]pyridin-6-yl]-pyrrolo[1,2-a]pyrazin-8-yl-methanone]	7.18 nM
C[C@H]1c2nn(C)c(-c3cc(F)c(F)c(F)c3)c2CCN1C(=O)c1cccc2c1OCCC2 [Example 583, Chroman-8-yl-[(7S)-2,7-dimethyl-3-(3,4,5-trifluorophenyl)-5,7-dihydro-4H-pyrazolo[3,4-c]pyridin-6-yl]methanone]	1.42 nM
Cc1cnc2c(C(=O)N3CCc4c(nn(C)c4-c4cc(F)c(F)c(F)c4)[C@@H]3C)cnn2c1 [Example 451, [(7S)-2,7-Dimethyl-3-(3,4,5-trifluorophenyl)-5,7-dihydro-4H-pyrazolo[3,4-c]pyridin-6-yl]-(6-methylpyrazolo[1,5-a]pyrimidin-3-yl)methanone]	199 nM
Cc1c(C(=O)N2CCc3c(nn(C)c3-c3cc(F)c(F)c(F)c3)[C@@H]2C)ccn1C [Example 351, (1,2-Dimethylpyrrol-3-yl)-[(7S)-2,7-dimethyl-3-(3,4,5-trifluorophenyl)-5,7-dihydro-4H-pyrazolo[3,4-c]pyridin-6-yl]methanone]	8.9 nM
CCOc1ccc(-c2c3c(nn2C)[C@H](C)N(C(=O)c2ccc4ncccc4c2)CC3)cc1 [Example 497, [(7S)-3-(4-Ethoxyphenyl)-2,7-dimethyl-5,7-dihydro-4H-pyrazolo[3,4-c]pyridin-6-yl]-(6-quinolyl)methanone]	313 nM
C[C@H]1c2nn(C)c(-c3cc(F)cc4ccoc34)c2CCN1C(=O)c1ccc2ncccc2c1 [Example 536, [(7S)-3-(5-Fluorobenzofuran-7-yl)-2,7-dimethyl-5,7-dihydro-4H-pyrazolo[3,4-c]pyridin-6-yl]-(6-quinolyl)methanone]	20 nM
COc1nccc(C(=O)N2CCc3c(nn(C)c3-c3cccc(C(C)(F)F)c3)[C@@H]2C)c1C [Example 594, [(7S)-3-[3-(1,1-Difluoroethyl)phenyl]-2,7-dimethyl-5,7-dihydro-4H-pyrazolo[3,4-c]pyridin-6-yl]-(2-methoxy-3-methyl-4-pyridyl)methanone]	335 nM

Same assay, conditions: 300 nM [Glycerol-1,3-3H]-oleyl glycerol, one hour incubation

Structure (SMILES)	IC50
Cn1nc2c(c1-c1ccc(C(F)(F)F)s1)CCN(C(=O)c1ccc3ncccc3c1)C2 [Example 103, (2-Methyl-3-(5-(trifluoromethyl)thiophen-2-yl)-2,4,5,7-tetrahydro-6H-pyrazolo[3,4-c]pyridin-6-yl)(quinolin-6-yl)methanone]	264 nM
C[C@H]1c2nn(C)c(-c3cc(F)c(F)c(F)c3)c2CCN1C(=O)c1cncc(-n2cccn2)c1 [Example 318, [(7S)-2,7-Dimethyl-3-(3,4,5-trifluorophenyl)-5,7-dihydro-4H-pyrazolo[3,4-c]pyridin-6-yl]-(5-pyrazol-1-yl-3-pyridyl)methanone]	178 nM
COc1cnccc1C(=O)N1CCc2c(nn(C)c2-c2cc(F)c(F)c(F)c2)[C@@H]1C [Example 311, [(7S)-2,7-Dimethyl-3-(3,4,5-trifluorophenyl)-5,7-dihydro-4H-pyrazolo[3,4-c]pyridin-6-yl]-(3-methoxy-4-pyridyl)methanone]	87.1 nM
C[C@H]1c2nn(C)c(-c3cc(F)c(F)c(F)c3)c2CCN1C(=O)c1cnc2cccnc2c1 [Example 245, (S)-(2,7-Dimethyl-3-(3,4,5-trifluorophenyl)-2,4,5,7-tetrahydro-6H-pyrazolo[3,4-c]pyridin-6-yl)(1,5-naphthyridin-3-yl)methanone]	122 nM
C[C@H]1c2nn(C)c(-c3cc(F)c(F)c(F)c3)c2CCN1C(=O)c1cc(-n2cnnc2)cc(C(F)(F)F)c1 [Example 296, [(7S)-2,7-Dimethyl-3-(3,4,5-trifluorophenyl)-5,7-dihydro-4H-pyrazolo[3,4-c]pyridin-6-yl]-[3-(1,2,4-triazol-4-yl)-5-(trifluoromethyl)phenyl]methanone]	608 nM
C[C@H]1c2nn(C)c(-c3cc(F)c(F)c(F)c3)c2CCN1C(=O)c1cn(C2CC2)nc1C(F)(F)F [Example 332, [1-Cyclopropyl-3-(trifluoromethyl)pyrazol-4-yl]-[(7S)-2,7-dimethyl-3-(3,4,5-trifluorophenyl)-5,7-dihydro-4H-pyrazolo[3,4-c]pyridin-6-yl]methanone]	143 nM
COc1ccc(C(=O)N2CCc3c(nn(C)c3-c3cc(C)cc(F)c3)[C@@H]2C)cc1 [Example 258, [(7S)-3-(3-Fluoro-5-methyl-phenyl)-2,7-dimethyl-5,7-dihydro-4H-pyrazolo[3,4-c]pyridin-6-yl]-(4-methoxyphenyl)methanone]	68.5 nM
C[C@H]1c2nn(C)c(-c3cc(F)c(F)c(F)c3)c2CCN1C(=O)c1ccc(-c2ccccn2)s1 [Example 325, [(7S)-2,7-Dimethyl-3-(3,4,5-trifluorophenyl)-5,7-dihydro-4H-pyrazolo[3,4-c]pyridin-6-yl]-[5-(2-pyridyl)-2-thienyl]methanone]	7.9 nM
CCC1c2nn(C)c(-c3cccc(F)c3)c2CCN1C(=O)c1ccc2ncccc2c1 (centres unmarked) [Example 136, (7-Ethyl-3-(3-fluorophenyl)-2-methyl-2,4,5,7-tetrahydro-6H-pyrazolo[3,4-c]pyridin-6-yl)(quinolin-6-yl)methanone]	31.4 nM
C[C@@H]1c2nn(C)c(-c3cc(F)cc(Cl)c3)c2CCN1C(=O)c1ccc2nccnc2c1 [Example 182, (R)-(3-(3-Chloro-5-fluorophenyl)-2,7-dimethyl-2,4,5,7-tetrahydro-6H-pyrazolo[3,4-c]pyridin-6-yl)(quinoxalin-6-yl)methanone]	> 10000 nM
Cn1nc2c(c1-c1ccccc1)CCN(C(=O)c1ccc3occc3c1)C2 [Example 35, Benzofuran-5-yl(2-methyl-3-phenyl-2,4,5,7-tetrahydro-6H-pyrazolo[3,4-c]pyridin-6-yl)methanone]	482 nM
C[C@H]1c2nn(C)c(-c3cc(F)c(F)c(F)c3)c2CCN1C(=O)c1ccc2c(cnn2C)c1 [Example 211, (S)-(2,7-Dimethyl-3-(3,4,5-trifluorophenyl)-2,4,5,7-tetrahydro-6H-pyrazolo[3,4-c]pyridin-6-yl)(1-methyl-1H-indazol-5-yl)methanone]	72.2 nM
C[C@H]1c2nn(C)c(-c3cc(F)c(F)c(F)c3)c2CCN1C(=O)c1cccc(-n2cccn2)n1 [Example 320, [(7S)-2,7-Dimethyl-3-(3,4,5-trifluorophenyl)-5,7-dihydro-4H-pyrazolo[3,4-c]pyridin-6-yl]-(6-pyrazol-1-yl-2-pyridyl)methanone]	79 nM
C[C@H]1c2nn(C)c(-c3cc(F)c(F)c(F)c3)c2CCN1C(=O)c1cccc(-n2nccn2)c1 [Example 283, [(7S)-2,7-Dimethyl-3-(3,4,5-trifluorophenyl)-5,7-dihydro-4H-pyrazolo[3,4-c]pyridin-6-yl]-[3-(triazol-2-yl)phenyl]methanone]	19.1 nM
